Patent US9850382B1, “Unsymmetrical cyanine dyes and their application” (priority 2016, dated 2017)

Experiments:
nucleic acids = details: cited from earlier work
rRNA, tRNA and mRNA = assay: Selectivity test on different source of RNA; format: binding; details: dye 400 nM, RNA up to 1000 ng/mL in 1×TE, Ex/Em=620/660 nm, FIG. 4
Experimental: A series of rRNA, tRNA and mRNA dilutions up to 1000 ng/mL in 1×TE buffer is added to the wells of a 96-well microplate. Compound 9 is added to each well at a final concentration of 400 nM. The fluorescence intensity is measured on a fluorescence plate reader with Ex/Em=620/660 nm.

[1] = test system: mixture of RNA and DNA at 1:1 ratio; assay: Selectivity test on a 1:1 mixture of RNA and DNA; format: binding; details: dye 100 nM, RNA:DNA 1:1 up to 200 ng/mL each in 1×TE, Ex/Em=620/660 nm, FIG. 3
Experimental: In another experiment, a series of RNA and DNA dilutions up to 200 ng/mL in 1×TE buffer is added to the wells of a 96-well microplate. A series of mixture of RNA and DNA at 1:1 ratio is prepared according to the following table, and is added to separate wells.
Compound 9 is added to each well at a final concentration of 100 nM. The fluorescence intensity is measured on a fluorescence plate reader with Ex/Em=620/660 nm.

rRNA and 1 kb DNA Ladder = assay: Detection of nucleic acids in electrophoretic gels (post-gel staining); format: binding; details: 1% agarose gel, ~1 μM dye in 1×TE, ~30 min staining, 633 nm laser, 675 nm filter
Experimental: Agarose gels (1% agarose) are prepared according to a standard protocol. Serial two-fold dilutions of 1 kb DNA Ladder from Invitrogen and rRNA from Roche are prepared, and the resulting DNA and RNA samples are loaded onto an agarose gel. The DNA and RNA samples are electrophoretically separated in 1×TBE buffer using a standard protocol. A stock solution of compound 9 is diluted into ˜1 μM final concentration in 1×TE buffer. The agarose gels are incubated in the staining solutions for ˜30 min to stain the gels. The stained nucleic acid bands are recorded using Fuji FLA-3000 gel scanner, using 633 nm laser illumination, and a 675 nm filter.

calf thymus DNA = assay: Microplate fluorescence intensity with DNA dilutions; format: binding; details: dye 400 nM, DNA up to 1000 ng/mL in 1×TE, Ex/Em=620/660 nm, FIG. 2
Experimental: (§1) A series of RNA and DNA dilutions up to 1000 ng/mL in 1×TE buffer is added to the wells of a 96-well microplate. A series of mixture of RNA and DNA is prepared according to the following table, and is added to separate wells.
(§2) Compound 9 is added to each well at a final concentration of 400 nM. The fluorescence intensity is measured on a fluorescence plate reader with Ex/Em=620/660 nm.

[2] = test system: E. coli rRNA versus calf thymus DNA; assay: Selectivity test on RNA vs dsDNA (emission spectra in TE buffer); format: binding; details: 10 μg/mL calf thymus DNA or E. coli rRNA in 1×TE, 5 μL of 100 μM dye per mL, excitation 620 nm, FIG. 1
Experimental: A stock solution of compound 9 was prepared at 100 μM concentration in DMSO. Calf thymus DNA, and E. coli rRNA were prepared at 10 μg/mL concentration in 1×TE buffer, individually. To 1 mL of DNA solution and 1 mL of RNA solution was added with 5 μL of compound 9, individually. The emission spectrum associated with each of the solutions was scaned at excitation wavelength 620 nm.

rRNA [3] = assay: Microplate fluorescence intensity with RNA dilutions; format: binding; details: dye 400 nM, RNA up to 1000 ng/mL in 1×TE, Ex/Em=620/660 nm, FIG. 2
Experimental: as §1, §2

mixture of RNA and DNA = assay: Selectivity test on a mixture of RNA and DNA (total 1000 ng/mL); format: binding; details: dye 400 nM, RNA+DNA total 1000 ng/mL in 1×TE, Ex/Em=620/660 nm, FIG. 2
Experimental: as §1, §2

DNA marker = assay: Detection of nucleic acids on microarrays, DNA spots; format: binding; details: ~1 μM dye in 1×TE, 5 minutes, 633 nm laser excitation
Experimental: (§3) A microarray consisting of a dilution series of DNA marker and rRNA is printed on a slide using a microarray spotter. The slide is equilibrated in 1×SSC buffer to remove any excess printing buffer, and then soaked with compound 9 solution at ˜1 μM final concentration in 1×TE buffer for 5 minutes, followed by a 5 minute wash in 1×TE buffer to remove any excess compound. The slide is then imaged using a array scaner using 633 nm laser excitation.

rRNA [4] = assay: Detection of nucleic acids on microarrays, rRNA spots; format: binding; details: ~1 μM dye in 1×TE, 5 minutes, 633 nm laser excitation
Experimental: as §3

SMILES | detection sensitivity on nucleic acids (nucleic acids) | fluorescent signal when associated with rRNA, tRNA and mRNA (rRNA, tRNA and mRNA) | selectivity on RNA in a mixture of RNA and DNA [1] | fluorescence signal of RNA bands versus corresponding DNA bands in gel (rRNA and 1 kb DNA Ladder) | fluorescence signal with DNA alone (calf thymus DNA) | selectivity for RNA versus DNA (fluorescence emission spectra) [2] | fluorescence intensity response with RNA concentration (rRNA [3]) | fluorescence intensity of mixture of RNA and DNA compared with RNA alone (mixture of RNA and DNA) | staining of DNA spots on microarray (DNA marker) | staining of rRNA spots on microarray (rRNA [4])
CN1C(=Cc2cc[n+](C)c3ccccc23)Sc2ccccc21 [Thiazole Orange, reference compound] | low detection sensitivity | – | – | – | – | – | – | – | – | –
CCCN1C=C/C(=C\c2sc3ccccc3[n+]2C)c2ccccc21 [SYBR Safe] | low sensitive | – | – | – | – | – | – | – | – | –
CCN(CC)Cc1ccc(C(=C\c2sc3ccc(S(=O)(=O)NCCCS(=O)(=O)[O-])cc3[n+]2C)/C=C2\C=CN(C)c3ccccc32)cc1 [Compound 9] | – | comparable fluorescent signal | excellent selectivity | much brighter | little to no signal | good selectivity | nice linear response | the same for the corresponding concentration of RNA | undetectable | stained
